# According to patent publication US10131664B2 (Celgene Quanticel Research, Inc., priority 2013, dated 2018):
# pIC50: −log10 of the molar value. Read-outs that look alike come from different tables or passages of the source.
# How the values were obtained:
# THP-1 (AML) cells = assay: LSD1 CD11b cellular assay (flow cytometry); format: cell-based; conditions: CD11b expression in THP-1 (AML) cells, flow cytometry, 4 days incubation, read-out: Cellular IC50
# Procedure, shortened: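 THP-1 AML cells treated with serially diluted compound (0.2% DMSO final) for 4 days at 37 °C, 5% CO2. CD11b expression measured by flow cytometry with DAPI staining; IC50 derived from percent CD11b-positive cells versus inhibitor concentration.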
# full-length human LSD1 = full-length human LSD1 (Homo sapiens (Human), UniProt O60341); assay: In vitro enzyme inhibition assay LSD-1 (TR-FRET); format: biochemical; conditions: TR-FRET, 0.1 nM LSD1, 50 nM H3K4me1-biotin peptide, 2 μM FAD, pH7.3; read-out: LSD1 IC50
# Experimental: This assay determines the ability of a test compound to inhibit LSD1 demethylase activity.
# The enzymatic assay of LSD1 activity is based on Time Resolved-Fluorescence Resonance Energy Transfer (TR-FRET) detection.
# The ability of the compounds disclosed herein to inhibit LSD1 activity was quantified and the respective IC50 value was determined. Table 5 provides the IC50 values of various substituted heterocyclic compounds disclosed herein.
SMILES,"pIC50 (THP-1 (AML) cells; Homo sapiens, 96 h)",pIC50 (full-length human LSD1),pIC50 (THP-1 (AML) cells)
"Cn1nnc2cc(-c3cnc(N4CCC(N)CC4)nc3-c3ccc(C#N)c(F)c3)ccc21 [Example 96, 4-[2-(4-aminopiperidin-1-yl)-5-(1-methylbenzotriazol-5-yl)pyrimidin-4-yl]-2-fluorobenzonitrile]",> 7.00,> 7.00,
"N#Cc1ccc(-c2nc(N3CCC(N)CC3)ncc2C#CC2(O)CCOCC2)cc1F [Example 97, 4-[2-(4-aminopiperidin-1-yl)-5-[2-(4-hydroxyoxan-4-yl)ethynyl]pyrimidin-4-yl]-2-fluorobenzonitrile]",6.00 to 7.00,> 7.00,
Cn1nncc1C#Cc1cnc(N2CCC(N)CC2)nc1-c1ccc(C#N)c(F)c1 [Example 98],6.00 to 7.00,> 7.00,
"Cn1ccc(C#Cc2cnc(N3CCC(N)CC3)nc2-c2ccc(C#N)c(F)c2)n1 [Example 99, 4-[2-(4-aminopiperidin-1-yl)-5-[2-(1-methylpyrazol-3-yl)ethynyl]pyrimidin-4-yl]-2-fluorobenzonitrile]",> 7.00,> 7.00,
Cn1cc(C#Cc2cnc(N3CCC(N)CC3)nc2-c2ccc(C#N)c(F)c2)nn1 [Example 100],> 7.00,> 7.00,
"Cn1cc(C#Cc2cnc(N3CCC(N)CC3)nc2-c2ccc(C#N)c(F)c2)cn1 [Example 102, 4-[2-(4-aminopiperidin-1-yl)-5-[2-(1-methylpyrazol-4-yl)ethynyl]pyrimidin-4-yl]-2-fluorobenzonitrile]",> 7.00,> 7.00,
"N#Cc1ccc(-c2nc(N3CCC(N)C(O)C3)ncc2-c2cnn(CC(F)(F)F)c2)cc1F (centres unmarked) [Example 103, 4-[2-(4-amino-3-hydroxypiperidin-1-yl)-5-[1-(2,2,2-trifluoroethyl)pyrazol-4-yl]pyrimidin-4-yl]-2-fluorobenzonitrile]",6.00 to 7.00,> 7.00,
"Cn1nnc2cc(-c3cnc(N4CCC(N)CC4)nc3-c3ccc(C#N)c(F)c3)c(F)cc21 [Example 105, 4-[2-(4-aminopiperidin-1-yl)-5-(6-fluoro-1-methylbenzotriazol-5-yl)pyrimidin-4-yl]-2-fluorobenzonitrile]",> 7.00,> 7.00,
"Cn1nccc1C#Cc1cnc(N2CCC(N)CC2)nc1-c1ccc(C#N)c(F)c1 [Example 106, 4-[2-(4-aminopiperidin-1-yl)-5-[2-(2-methylpyrazol-3-yl)ethynyl]pyrimidin-4-yl]-2-fluorobenzonitrile]",6.00 to 7.00,> 7.00,
"Cc1ccc(-c2cnc(N3CCC4(CC3)CNC4)nc2-c2ccc(C#N)cc2)cc1 [Example 113, 4-[2-(2,7-diazaspiro[3.5]nonan-7-yl)-5-(4-methylphenyl)pyrimidin-4-yl]benzonitrile]",6.00 to 7.00,> 7.00,
"Cc1ccc(-c2cnc(N3CCC4CNCC4CC3)nc2-c2ccc(C#N)cc2)cn1 (centres unmarked) [Example 114, 4-[2-(2,3,3a,4,5,7,8,8a-octahydro-1H-pyrrolo[3,4-d]azepin-6-yl)-5-(6-methylpyridin-3-yl)pyrimidin-4-yl]benzonitrile]",6.00 to 7.00,> 7.00,
"Cn1ncc2cc(-c3cnc(N4CCC5CNCC5C4)nc3-c3ccc(C#N)cc3)ccc21 (centres unmarked) [Example 115, 4-[2-(1,2,3,3a,4,6,7,7a-octahydropyrrolo[3,4-c]pyridin-5-yl)-5-(1-methylindazol-5-yl)pyrimidin-4-yl]benzonitrile]",> 7.00,> 7.00,
"Cn1ncc2cc(-c3cnc(N4CCC(N)CC4)nc3-c3ccc(C#N)cc3)ccc21 [Example 116, 4-[2-(4-aminopiperidin-1-yl)-5-(1-methylindazol-5-yl)pyrimidin-4-yl]benzonitrile]",> 7.00,> 7.00,
"N#Cc1ccc(-c2nc(N3CCC4CNCC4CC3)ncc2-c2ccc3cn[nH]c3c2)cc1 (centres unmarked) [Example 117, 4-[2-(2,3,3a,4,5,7,8,8a-octahydro-1H-pyrrolo[3,4-d]azepin-6-yl)-5-(1H-indazol-6-yl)pyrimidin-4-yl]benzonitrile]",> 7.00,> 7.00,
"Cc1ccc(-c2cnc(N3CC4CNCC(C4)C3)nc2-c2ccc(C#N)cc2)cc1 [Example 119, 4-[2-(3,7-diazabicyclo[3.3.1]nonan-3-yl)-5-(4-methylphenyl)pyrimidin-4-yl]benzonitrile]",6.00 to 7.00,> 7.00,
"Cn1ncc2cc(-c3cnc(N4CC5CNCC(C5)C4)nc3-c3ccc(C#N)cc3)ccc21 [Example 120, 4-[2-(3,7-diazabicyclo[3.3.1]nonan-3-yl)-5-(1-methylindazol-5-yl)pyrimidin-4-yl]benzonitrile]",6.00 to 7.00,> 7.00,

# Next, values leading:
"pIC50 (THP-1 (AML) cells; Homo sapiens, 96 h)",pIC50 (full-length human LSD1),pIC50 (THP-1 (AML) cells),SMILES
> 7.00,> 7.00,,"Cn1nc2ccc(-c3cnc(N4CCC(N)CC4)nc3-c3ccc(C#N)c(F)c3)cc2c1N [Example 95, 4-[5-(3-amino-2-methylindazol-5-yl)-2-(4-aminopiperidin-1-yl)pyrimidin-4-yl]-2-fluorobenzonitrile]"
> 7.00,> 7.00,,"Cn1ncc2cc(-c3cnc(N4CCC(N)C(O)C4)nc3-c3ccc(C#N)c(F)c3)ccc21 (centres unmarked) [Example 101, 4-[2-(4-amino-3-hydroxypiperidin-1-yl)-5-(1-methylindazol-5-yl)pyrimidin-4-yl]-2-fluorobenzonitrile]"
,> 7.00,> 7.00,"Cn1ncc2cc(-c3cnc(N4CCC(N)C(O)C4)nc3-c3ccc(C#N)c(F)c3)ccc21 (centres unmarked) [Example 104, 4-[2-(4-amino-3-hydroxypiperidin-1-yl)-5-(1-methylindazol-5-yl)pyrimidin-4-yl]-2-fluorobenzonitrile]"
> 7.00,> 7.00,,"Cn1cc2cc(-c3cnc(N4CCC(N)C(O)C4)nc3-c3ccc(C#N)c(F)c3)ccc2n1 (centres unmarked) [Example 107, 4-[2-(4-amino-3-hydroxypiperidin-1-yl)-5-(2-methylindazol-5-yl)pyrimidin-4-yl]-2-fluorobenzonitrile]"
> 7.00,> 7.00,,"Cn1cc2cc(-c3cnc(N4CCCC(N)C4)nc3-c3ccc(C#N)c(F)c3)ccc2n1 (centres unmarked) [Example 108, 4-[2-(3-aminopiperidin-1-yl)-5-(2-methylindazol-5-yl)pyrimidin-4-yl]-2-fluorobenzonitrile]"
6.00 to 7.00,> 7.00,,"Cn1cc2cc(-c3cnc(N4CCNCC4)nc3-c3ccc(C#N)c(F)c3)ccc2n1 [Example 109, 2-fluoro-4-[5-(2-methylindazol-5-yl)-2-piperazin-1-ylpyrimidin-4-yl]benzonitrile]"
> 7.00,> 7.00,,"Cn1cc2cc(-c3cnc(N4CCCNCC4)nc3-c3ccc(C#N)c(F)c3)ccc2n1 [Example 110, 4-[2-(1,4-diazepan-1-yl)-5-(2-methylindazol-5-yl)pyrimidin-4-yl]-2-fluorobenzonitrile]"
> 7.00,> 7.00,,"Cn1ncc2cc(-c3cnc(N4CCC(N)C(F)C4)nc3-c3ccc(C#N)c(F)c3)ccc21 (centres unmarked) [Example 111, 4-[2-(4-amino-3-fluoropiperidin-1-yl)-5-(1-methylindazol-5-yl)pyrimidin-4-yl]-2-fluorobenzonitrile]"
> 7.00,> 7.00,,"Cn1cc2cc(-c3cnc(N4CCC(N)C(F)C4)nc3-c3ccc(C#N)c(F)c3)ccc2n1 (centres unmarked) [Example 112, 4-[2-(4-amino-3-fluoropiperidin-1-yl)-5-(2-methylindazol-5-yl)pyrimidin-4-yl]-2-fluorobenzonitrile]"
